In ChEMBL document CHEMBL1667721, “Isolation, structure elucidation, and cytotoxic evaluation of furanonaphthoquinones from in vitro plantlets and cultures of Streptocarpus dunnii” (J Nat Prod, 2011) one finds IC50 data, which are given here for 5 compounds.

Some results are limits rather than exact numbers.

The term IC50 denotes the concentration needed to halve the response being measured.

The subject of assay [1] is MCF7. Put plainly: Cytotoxicity against human MCF7 cells after 6 days.
The nature of assay [2]: Cytotoxicity against human Hs 578T cells after 6 days.
For assay [3], the system named is BT-474. Put plainly: Cytotoxicity against human BT474 cells after 6 days.
Assay [4] deals with MIA PaCa-2. Put plainly: Cytotoxicity against human MIAPaCa2 cells after 6 days.
The nature of assay [5]: Cytotoxicity against human Hs 578T cells after 24 hrs. The assay is classed as functional, cell-based.
In assay [6] the test system is MCF7. In words: Cytotoxicity against human MCF7 cells after 24 hrs. It counts as functional, cell-based.
Assay [7] deals with BT-474. In words: Cytotoxicity against human BT474 cells after 24 hrs. The assay is classed as functional, cell-based.
For assay [8], the system named is MIA PaCa-2. In words: Cytotoxicity against human MIAPaCa2 cells after 24 hrs. The assay is classed as functional, cell-based.
Setting [9] is: Homo sapiens, MCF7, 6 days, read-out: IC50.
Setting [10] is: Homo sapiens, Hs-578T, 6 days, read-out: IC50.
[11] abbreviates: Homo sapiens, BT-474, 6 days, read-out: IC50.
[12] abbreviates: Homo sapiens, MIA PaCa-2, 6 days, read-out: IC50.

Regarding `C[C@H]1OC2=C(C(=O)c3ccccc3C2=O)C1(C)C`, the IC50 with MCF7 [1] (setting [9]) was 5.8 µM; in assay [2] (setting [10]), above 10 µM; with BT-474 [3] (setting [11]), 4.5 µM; in the assay with MIA PaCa-2 [4] (setting [12]), 4.6 µM.

`C[C@H]1OC2=C(C(=O)c3ccc(O)cc3C2=O)C1(C)C`: the IC50 with MCF7 [1] (setting [9]) is 5.7 µM; in assay [2] (setting [10]) it was above 10 µM; in the assay on BT-474 [3] (setting [11]), 4.9 µM; in the assay on MIA PaCa-2 [4] (setting [12]), 6.7 µM.

As to `Cc1ccc2c(c1O)C(=O)c1ccccc1C2=O`, the IC50 result (in assay [5]; in the assay with MCF7 [6]; in the assay with BT-474 [7]; in the assay with MIA PaCa-2 [8]) was “Not Active” in each case.

With `COc1cc2c(cc1O)C(=O)C1=C(O[C@H](C)C1(C)C)C2=O`, the IC50 entry (in the assay with MCF7 [1] (mcf7); in assay [2] (hs-578t); in the assay with BT-474 [3] (bt-474); in the assay on MIA PaCa-2 [4] (mia paca-2)) was “Not Active” each time.

Take `C[C@H]1OC2=C(C(=O)C(=O)c3ccccc32)C1(C)C` [(3R)-DUNNIONE]: the half-inhibitory concentration (IC50) in the assay with MCF7 [1] (setting [9]) was 2.3 µM; in assay [2] (setting [10]), 5 µM; in the assay with BT-474 [3] (setting [11]), 1 µM; in the assay on MIA PaCa-2 [4] (setting [12]), 1.9 µM.
